Test results reported in patent US10799590B2, “Compositions containing a bitter tastant and at least one sophorolipid, and methods of reducing bitter taste attributed to a bitter tastant in an edible composition” (The United States of America, as Represented by the …, priority 2015, dated 2020).

Test system: cultured human fungiform taste papillae cells (HBO cells)
Assay: Calcium imaging of cultured human fungiform taste papillae (HBO) cells: response frequency, estimation of sweet potency
Type: cell-based
Text: In vitro cell-based assay of sweet property. Establishment and maintenance of cultures of human fungiform taste papillae cells (HBO cells): We previously established the current proprietary protocol (Ozdener, H., et al., Chem. Senses, 31(3): 279-90 (2006); Ozdener, M. H., et al., Chem. Senses, 36(7): 601-12 (2011); Ozdener, H., et al., Isolation and culture of human fungiform taste papillae cells, J. Vis. Exp., 2012 May 17;(63):e3730) which allowed us to culture human fungiform taste papillae cells retaining their physiological and molecular characteristics for more than a year. […] The human fungiform taste papillae cells were cultured according to protocols that we have published (Ozdener et al. 2006, Ozdener et al. 2011). Human fungiform taste papillae were removed and immediately placed into an isolation solution followed by enzymatic digestion. Digested fungiform papillae were then gently minced with a surgical razor and seeded on collagen type-1 coated coverslips and incubated at 36° C. in a humidified environment containing 5% CO2. The fungiform taste papillae cells were cultured in Iscove's Modified Dulbecco's medium containing 10% fetal bovine serum, 1:5 ratio of MCDB (Molecular, Cellular, and Developmental Biology) 153 medium, and a triple cocktail of antibiotics (100 U/mL/100 μg/mL, penicillin/streptomycin, and 0.5 μg/mL fungizone). Culture medium was replaced every 5-7 days by one-third of fresh culture medium. Human fungiform taste papillae cells have been maintained in culture for a period of more than 1 year without loss of viability and with retention of the molecular and biochemical properties of acutely isolated taste cells (Ozdener et al., 2011). Calcium imaging: Cultured taste cells grown for 3-4 days glass coverslips which were loaded for 30-60 min with the calcium sensitive dye fura-2 by incubating the cells in Ringer solution (145 mM NaCl, 5 mM KCl, 1 mM MgCl2, 1 mM CaCl2, 1 mM Na-pyruvate, 20 mM Hepes-Na and Cellobiose 15 mM, pH 7.2 with osmolarity adjusted to 300-310 by 5M NaCl) supplemented with […] (Molecular Probes Inc., Eugene, Oreg.) and 10 mg/ml Pluronic® F127 (Molecular Probes Inc.). Coverslips were then placed in a recording chamber and continuously bathed with Ringer solution superfusion. Stimuli were dissolved in Ringer and then pH and osmolarity readjusted if needed. Cells were exposed to sweet ([…]), bitter mixture (PTC (phenylthiocarbamide)) 2mM+Salicin 5 mM+Denatonium 2 mM), guaifenesin (GF, 3 mM) and acetaminophen (APAP, 3 mM), and various sophorolipids stimuli: sophorose, sophorolipid palmitic acid, sophorolipid stearic acid, sophorolipid oleic acid. […]

## OC[C@H]1O[C@@H](O[C@@H]2[C@@H](O)[C@H](O)[C@@H](CO)O[C@H]2O)[C@H](O)[C@@H](O)[C@@H]1O [Sophorose, 2-O-β-D-glucopyranosyl-β-D glucopyranose]
Cultured human taste cells, concentration 292 uM
  %-responsive cells: 16.05%
Tested at 292 uM, adjusted against sucralose 5 mM
  Concentration adjusted response frequency: 274.89
